These results are taken from ChEMBL document CHEMBL1132896, “Beta-casomorphins: substitution of phenylalanine with beta-homo phenylalanine increases the mu-type opioid receptor affinity” (Bioorg Med Chem Lett, 2000).

In test [1] the target is T1, Mu-type opioid receptor (Rattus norvegicus, UniProt P33535). In words: Inhibitory concentration against [3H]DAMGO binding to Opioid receptor mu 1 in rat brain membrane. Type of test: cell membranes.
For test [2], the target named is T1, Mu-type opioid receptor. In words: Compound was evaluated for the binding affinity of Opioid receptor mu 1 by displacing the radioligand [3H]DAMGO from rat brain membrane.

Non-standard residues stand in square brackets, D forms with d. Residues, ends and D or L forms follow the SMILES beside them. β3hF = N[C@H](CC(=O)O)Cc1ccccc1

T1 sequence (P33535 whole entry): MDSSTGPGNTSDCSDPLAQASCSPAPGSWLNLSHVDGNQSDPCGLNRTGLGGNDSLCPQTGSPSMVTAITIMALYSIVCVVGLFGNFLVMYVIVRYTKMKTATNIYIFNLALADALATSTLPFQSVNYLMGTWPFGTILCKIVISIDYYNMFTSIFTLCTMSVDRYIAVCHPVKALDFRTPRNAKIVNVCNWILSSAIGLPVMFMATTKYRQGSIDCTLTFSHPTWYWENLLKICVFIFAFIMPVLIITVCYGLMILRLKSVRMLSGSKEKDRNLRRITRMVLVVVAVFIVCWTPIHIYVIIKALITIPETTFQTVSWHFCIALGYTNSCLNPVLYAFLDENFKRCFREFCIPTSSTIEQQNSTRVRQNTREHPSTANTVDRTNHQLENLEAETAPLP

In the case of `CC[C@H](C)[C@H](NC(=O)[C@@H]1CCCN1C(=O)CNC(=O)[C@@H]1CCCN1C(=O)C[C@H](Cc1ccccc1)NC(=O)[C@@H]1CCCN1C(=O)[C@@H](N)Cc1ccc(O)cc1)C(=O)O` (H-YP[β3hF]PGPI-OH), on Mu-type opioid receptor [1], the IC50 – broadly, the concentration that gives 50% inhibition – was 4 µM. The Ki – broadly, a measure of affinity in units of concentration, obtained from inhibition or displacement – at Mu-type opioid receptor [2] was 1440 nM.

For the molecule `N[C@@H](Cc1ccc(O)cc1)C(=O)N1CCC[C@H]1C(=O)N[C@H](CC(=O)N1CCC[C@H]1C(=O)NCC(=O)O)Cc1ccccc1` (H-YP[β3hF]PG-OH), the IC50 on Mu-type opioid receptor [1] worked out at 2 µM. At Mu-type opioid receptor [2], this molecule displayed a Ki of 720 nM.

Regarding `CC[C@H](C)[C@H](NC(=O)[C@@H]1CCCN1C(=O)CNC(=O)[C@@H]1CCCN1C(=O)[C@H](Cc1ccccc1)NC(=O)[C@@H]1CCCN1C(=O)[C@@H](N)Cc1ccc(O)cc1)C(=O)O` (H-YPFPGPI-OH), at Mu-type opioid receptor [1], the IC50 came out at 20 µM. Moreover, on Mu-type opioid receptor [2], affinity was put at a Ki of 7540 nM.

Regarding `N[C@@H](Cc1ccc(O)cc1)C(=O)N1CCC[C@H]1C(=O)N[C@@H](Cc1ccccc1)C(=O)N1CCC[C@H]1C(=O)NCC(=O)O` (H-YPFPG-OH), the concentration for half-maximal inhibition (IC50) on Mu-type opioid receptor [1] was 4.5 µM. For the same molecule, the Ki at Mu-type opioid receptor [2] stood at 1620 nM.
